Data: US20060045847A1, “Method for determination of anabolic activity” (priority 2004, published 2006)
Like-named read-outs stand apart in the source and are kept apart here.

Experiments:
[1] = tested on: gonadectomized (GDX) male C57BL6 mice; test: 7-day daily s.c. treatment, androgen-sensitive tissue weights in gonadectomized mice; format: in vivo, mouse; settings: daily s.c. 7 days, DHT 0.1 mg or THG 0.5 mg; for levator ani muscle weight: versus intact animals; for prostate weight: versus intact controls
Excerpt: We next used the best recognized in vivo assay to assess the in vivo activity of THG [Labrie, C., A. Bélanger, and F. Labrie, Androgenic activity of dehydroepiandrosterone and androstenedione in the rat ventral prostate. Endocrinology, 1988. 123: p. 1412-1417]. […] The levator ani is an androgen-sensitive muscle [Boissonneault, G., et al., Depressed translational activity in the androgen sensitive levator ani muscle of the rat. J Steroid Biochem, 1989. 32(4): p. 507-13] which has long been recognized as a myotropic marker of the androgenic/anabolic activity of steroids [Eisenberg, S., R. Buie, Jr., and L. Tobian, Jr., Adrenal cortical function in essential hypertension; a study of sweat sodium concentration. Am J Med Sci, 1950. 220(3): p. 287-9].
Eleven- to twelve-week-old male C57BL6 mice obtained from Harlan (Indianapolis, Ind.) were allowed to acclimate for 2 weeks. The animals were housed individually in an environmentally-controlled room (temperature: 22±3° C.; humidity: 50±20%; 12-h light-12-h dark cycles, lights on at 07:15 h). The mice had free access to tap water and a certified rodent feed (Lab Diet 5002 (pellet), Ralston Purina, St-Louis, Mo.). The experiment was conducted in an animal facility approved by the Canadian Council on Animal Care (CCAC) and the Association for Assessment and Accreditation of Laboratory Animal Care (AAALAC). The study was performed in accordance with the CCAC Guide for Care and Use of Experimental Animals.
(§1) Animals weighing between 24.0 and 32.4 g (mean=28.2 g) were randomized according to body weight and were assigned to nineteen groups of 10 animals each. On day 1 of the study, animals were castrated (GDX) under isoflurane anesthesia. All animals were sacrificed 7 days after GDX. […] A GDX-vehicle injected group were used as a control. Eight intact mice of the same strain, age and body weight were sacrificed as described above and tissues were collected, weighed and discarded. The mice sacrificed 2, 4 and 7 days after starting treatment received daily injection of the steroids and were sacrificed 24 h after last injection under isoflurane anesthesia and exsanguinated via cardiac puncture. The prostate (ventral+dorsal), seminal vesicles, preputial glands as well as gastrocnemius and levator ani muscle were collected, freed from adhering tissue or fluid and weighed.

[2] = molecular target: T1, human androgen receptor (Homo sapiens, UniProt P10275); test: Androgen receptor (AR) binding assay, displacement of [3H]R1881 (hydroxylapatite method)
T1 construct: expressed in transfected cells; host or cells: HEK-293 cells stably transfected with the pCMV neo-hAR plasmid; the 105 000 x g cytosol was used
T1 sequence (P10275 1-920): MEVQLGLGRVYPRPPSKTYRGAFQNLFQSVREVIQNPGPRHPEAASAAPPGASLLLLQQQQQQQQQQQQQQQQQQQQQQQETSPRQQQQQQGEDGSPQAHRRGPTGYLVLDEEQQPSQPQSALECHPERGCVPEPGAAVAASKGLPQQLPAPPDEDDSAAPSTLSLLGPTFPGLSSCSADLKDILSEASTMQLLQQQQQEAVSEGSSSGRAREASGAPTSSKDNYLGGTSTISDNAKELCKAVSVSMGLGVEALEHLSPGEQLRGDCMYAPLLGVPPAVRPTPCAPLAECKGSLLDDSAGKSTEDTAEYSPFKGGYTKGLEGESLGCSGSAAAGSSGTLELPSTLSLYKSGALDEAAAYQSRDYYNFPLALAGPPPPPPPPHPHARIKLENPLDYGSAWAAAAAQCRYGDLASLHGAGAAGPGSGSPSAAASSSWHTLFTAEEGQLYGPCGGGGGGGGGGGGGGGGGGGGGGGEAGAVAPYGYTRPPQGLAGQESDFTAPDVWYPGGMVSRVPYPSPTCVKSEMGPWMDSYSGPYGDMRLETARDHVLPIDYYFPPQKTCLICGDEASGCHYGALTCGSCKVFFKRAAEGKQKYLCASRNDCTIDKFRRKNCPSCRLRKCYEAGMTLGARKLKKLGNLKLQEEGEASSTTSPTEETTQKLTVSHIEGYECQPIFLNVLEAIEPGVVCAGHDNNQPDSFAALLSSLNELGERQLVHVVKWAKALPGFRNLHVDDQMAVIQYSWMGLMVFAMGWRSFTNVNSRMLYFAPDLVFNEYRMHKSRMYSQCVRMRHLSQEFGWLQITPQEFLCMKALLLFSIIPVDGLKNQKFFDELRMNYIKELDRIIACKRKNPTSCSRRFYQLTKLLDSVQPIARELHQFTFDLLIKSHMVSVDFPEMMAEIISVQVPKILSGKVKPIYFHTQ
Procedure: The incubation was performed with 3 nM [^3H]R1881 for 16 h at 0-4° C. in the presence or absence of the indicated concentrations of unlabeled compounds.
Androgen Receptor (AR) Assay
Preparation of Human Embryonic Kidney (HEK-293) cells stably Transfected with Human AR (hAR): The pCMV neo-hAR plasmid [Huang, X.-F. and V. Luu-The, Modulation of the androgenic response by recombinant human 11-cis retinol dehydrogenase. J. Steroid Biochem., 2001. 77(2-3): p. 129-133] was transfected into HEK-293 cells using lipofectin transfection kit (Life Technologies, Ontario, Canada), and cells resistant to G418 were isolated as previously described [Dufort, I., et al., Characteristics of a highly labile human type 5 17beta-hydroxysteroid dehydrogenase. Endocrinology, 1999. 140(2): p. 568-574]. On the morning of the binding assay, a pellet of HEK-293 hAR cells was thawed, suspended in buffer, sonicated and centrifuged at 105 000×g for 90 min. The androgen binding assay was performed with the hydroxylapatite (HAP) method [Martel, C., et al., Binding characteristics of novel nonsteroidal antiestrogens to the rat uterine estrogen receptors. J. Steroid Biochem. Mol. Biol., 1998. 64: p. 199-205] using HEK-293 hAR cell cytosol preparation (0.1 ml) and 3 nM [^3H]R1881.

[3] = tested on: mouse prostate; test: Preliminary experiment: stimulation of mouse prostate weight, potency relative to DHT; format: in vivo; settings: data not shown
Excerpt: We next used the best recognized in vivo assay to assess the in vivo activity of THG [Labrie, C., A. Bélanger, and F. Labrie, Androgenic activity of dehydroepiandrosterone and androstenedione in the rat ventral prostate. Endocrinology, 1988. 123: p. 1412-1417]. […] Similar observations were made for the preputial gland. The levator ani is an androgen-sensitive muscle [Boissonneault, G., et al., Depressed translational activity in the androgen sensitive levator ani muscle of the rat. J Steroid Biochem, 1989. 32(4): p. 507-13] which has long been recognized as a myotropic marker of the androgenic/anabolic activity of steroids [Eisenberg, S., R. Buie, Jr., and L. Tobian, Jr., Adrenal cortical function in essential hypertension; a study of sweat sodium concentration. Am J Med Sci, 1950. 220(3): p. 287-9].

[4] = tested on: androgen-sensitive genes in levator ani muscle, gastrocnemius muscle and prostate; test: Microarray gene expression profile in tissues of GDX mice, genes modulated in common with DHT; format: in vivo, mouse; settings: s.c. 0.5 mg THG vs 0.1 mg DHT, 0.5 h to 7 days
Excerpt: The genes selected were those identified in common according to the Affymetrix, MAS 5.0 and RMA program [Gautier, L., et al., affy—analysis of Affymetrix GeneChip data at the probe level. Bioinformatics, 2004. 20(3): p. 307-15]. Color scale representing days of fold change due to treatments is shown below the figure.
The selected genes were clustered by Euclidean distance. Columns represents each one of the 790 selected gene and each row a particular treatement group. A pseudo-colored representation of relative intensity is shown such that red indicates high, blue low and yellow unchanged expression, with scale shown at the right.
In the prostate, on the other hand, the classical androgen-sensitive tissue [Labrie, C., A. Bélanger, and F. Labrie, Androgenic activity of dehydroepiandrosterone and androstenedione in the rat ventral prostate. Endocrinology, 1988. 123: p.
as §1, with “The prostate (ventral+dorsal), seminal vesicles, preputial glands as well as gastrocnemius and levator ani muscle were collected, freed from adhering tissue or fluid and weighed.” left out
RNA extraction and microarrays tissues were snap-frozen in liquid nitrogen and kept at −80° C. prior to RNA extraction. […] Scanned images were analyzed with Affymetrix GCOS v1.1 software and with GeneSpring 6.1 software (Silicon Genetics, Redwood City, Calif.) as described [Vasseur, S., et al., Gene expression profiling by DNA microarray analysis in mouse embryonicfibroblasts transformed by rasV12 mutated protein and the E1A oncogene. […]

Row | Compound | preputial gland weight [1] | seminal vesicle weight [1] | levator ani muscle weight [1] | prostate weight [1] | relative potency to displace [3H]R1881 from the human AR [2] | potency relative to DHT as stimulator of the weight of the mouse prostate [3] [%] | number of genes commonly modulated by DHT and THG in gastrocnemius muscle [4] [genes] | number of genes commonly modulated by DHT and THG in levator ani muscle [4] [genes] | number of genes commonly modulated by DHT and THG in prostate [4] [genes] | relative potency to displace [3H]R1881 from the human AR ([2]; 3 nM [3H]R1881, 16 h at 0-4° C., HEK-293 hAR cell cytosol, THG = 1.0)
1 | C[C@]12CCC(=O)C[C@@H]1CC[C@@H]1[C@@H]2CC[C@]2(C)[C@@H](O)CC[C@@H]12 [DHT, dihydrotestosterone, reference compound] | completely reversed the GDX-induced atrophy | completely reversed the GDX-induced atrophy | increased weight of levator ani to values not different from intact animals | completely reversed the GDX-induced atrophy of the prostate |  |  |  |  |  | 
2 | C[C@]1(O)CC[C@H]2[C@@H]3CCC4=CC(=O)CCC4=C3C=C[C@@]21C [R1881, methyltrienolone, reference compound] |  |  |  |  | 0.72 |  |  |  |  | 
3 | CC[C@]1(O)CC[C@H]2[C@@H]3CCC4=CC(=O)CCC4=C3C=C[C@@]21CC [THG, tetrahydrogestrinone] | completely reversed the GDX-induced atrophy | completely reversed the GDX-induced atrophy | increased weight of levator ani to values not different from intact animals | reversed the effect of GDX, to a value not statistically different from intact controls |  | 20 | 112 | 790 | 1121 | 1.0
